ChEMBL document CHEMBL1151580, “Synthesis and antibacterial activity of some C-3-lactonyl substituted cephalosporins” (1993)

Legend:
Staphylococcus aureus [1] = assay: Minimum inhibitory concentration required for antibacterial activity against Staphylococcus aureus Russell
Enterococcus faecalis = assay: Minimum inhibitory concentration required for antibacterial activity against Ent. faecalis I; format: functional
Streptococcus pneumoniae [2] = assay: Minimum inhibitory concentration required for antibacterial activity against Streptococcus pneumoniae 1761; format: functional
Escherichia coli [3] = assay: Minimum inhibitory concentration required for antibacterial activity against Escherichia coli 10418; format: functional
Moraxella catarrhalis = assay: Minimum inhibitory concentration required for antibacterial activity against Moraxella catarrhalis Ravasio; format: functional
Morganella morganii = assay: Minimum inhibitory concentration required for antibacterial activity against Morg. morganii T361; format: functional
Escherichia coli [4] = assay: Minimum inhibitory concentration required for antibacterial activity against Escherichia coli 1077; format: functional
Streptococcus agalactiae = assay: Minimum inhibitory concentration required for antibacterial activity against Streptococcus agalactiae 2798; format: functional
Staphylococcus aureus [5] = assay: Minimum inhibitory concentration required for antibacterial activity against Staphylococcus aureus Oxford
Pseudomonas aeruginosa = assay: Minimum inhibitory concentration required for antibacterial activity against Pseudomonas aeruginosa 10662; format: functional
Escherichia coli [6] = assay: Minimum inhibitory concentration required for antibacterial activity against Escherichia coli ESS; format: functional
Streptococcus pneumoniae [7] = assay: Minimum inhibitory concentration required for antibacterial activity against Streptococcus pneumoniae PU 7; format: functional
[8] = tested on: Staphylococcus epidermidis; assay: Minimum inhibitory concentration required for antibacterial activity against Staphylococcus epidermidis PHLN 20; format: functional
Haemophilus influenzae [9] = assay: Minimum inhibitory concentration required for antibacterial activity against Haemophilus influenzae Q1; format: functional
Proteus mirabilis = assay: Minimum inhibitory concentration required for antibacterial activity against Pr. mirabilis C977; format: functional
Klebsiella pneumoniae = assay: Minimum inhibitory concentration required for antibacterial activity against Klebsiella pneumoniae T767; format: functional
Escherichia coli [10] = assay: Minimum inhibitory concentration required for antibacterial activity against Escherichia coli JT425; format: functional
Haemophilus influenzae [11] = assay: Minimum inhibitory concentration required for antibacterial activity against Haemophilus influenzae NEMC1; format: functional
Streptococcus pyogenes = assay: Minimum inhibitory concentration required for antibacterial activity against Streptococcus pyogenes CN 10; format: functional
Staphylococcus aureus [12] = assay: Minimum inhibitory concentration required for antibacterial activity against Staphylococcus aureus MB9; format: functional
Staphylococcus aureus [13] = assay: Minimum inhibitory concentration required for antibacterial activity against Staphylococcus aureus Russell; format: functional
Staphylococcus aureus [14] = assay: Minimum inhibitory concentration required for antibacterial activity against Staphylococcus aureus Oxford; format: functional

| Structure (SMILES) | MIC (Enterococcus faecalis) [µg/mL] | MIC (Streptococcus pneumoniae [2]) [µg/mL] | MIC (Escherichia coli [3]) [µg/mL] | MIC (Moraxella catarrhalis) [µg/mL] | MIC (Morganella morganii) [µg/mL] | MIC (Escherichia coli [4]) [µg/mL] | MIC (Streptococcus agalactiae) [µg/mL] | MIC (Pseudomonas aeruginosa) [µg/mL] | MIC (Escherichia coli [6]) [µg/mL] | MIC (Streptococcus pneumoniae [7]) [µg/mL] | MIC [8] [µg/mL] | MIC (Haemophilus influenzae [9]) [µg/mL] | MIC (Proteus mirabilis) [µg/mL] | MIC (Klebsiella pneumoniae) [µg/mL] | MIC (Escherichia coli [10]) [µg/mL] | MIC (Haemophilus influenzae [11]) [µg/mL] | MIC (Streptococcus pyogenes) [µg/mL] | MIC (Staphylococcus aureus [12]) [µg/mL] | MIC (Staphylococcus aureus [13]) [µg/mL] | MIC (Staphylococcus aureus [14]) [µg/mL] | also measured |
| --- | --- | --- | --- | --- | --- | --- | --- | --- | --- | --- | --- | --- | --- | --- | --- | --- | --- | --- | --- | --- | --- |
| CO/N=C(\C(=O)N[C@@H]1C(=O)N2C(C(=O)[O-])=C(/C=C3\C=C(C)C(=O)O3)CS[C@H]12)c1csc(N)n1.[Na+] | 16 | < 0.03 | < 0.03 | 8 | < 0.06 | 1 | < 0.03 | 32 | < 0.03 | 0.5 | 2 | < 0.03 | 0.06 | 1 | 2 | < 0.03 | < 0.03 | 4 | – | – | MIC (Staphylococcus aureus [1]): 2 µg/mL; MIC (Staphylococcus aureus [5]): 1 µg/mL |
| CO/N=C(\C(=O)N[C@@H]1C(=O)N2C(C(=O)[O-])=C(C3CCC(=O)O3)CS[C@H]12)c1csc(N)n1.[Na+] (stereo not given in full) | > 64 | < 0.03 | < 0.03 | 2 | 0.06 | 0.12 | 0.06 | 64 | < 0.03 | 2 | 0.5 | 0.06 | < 0.03 | 0.06 | 1 | < 0.03 | < 0.03 | 2 | 1 | 1 | – |
| CO/N=C(\C(=O)N[C@@H]1C(=O)N2C(C(=O)[O-])=C(CC3C=CC(=O)O3)CS[C@H]12)c1csc(N)n1.[Na+] (stereo not given in full) | > 64 | < 0.03 | 0.06 | 0.5 | 0.5 | 0.5 | 0.06 | > 64 | < 0.03 | 4 | 4 | 0.06 | 0.25 | 0.5 | 4 | < 0.03 | < 0.03 | 4 | 1 | 1 | – |
| CO/N=C(\C(=O)N[C@@H]1C(=O)N2C(C(=O)[O-])=C(COC(C)=O)CS[C@H]12)c1csc(N)n1.[Na+] [CEFOTAXIME SODIUM] | > 64 | < 0.03 | < 0.03 | 0.25 | 2 | < 0.03 | 0.12 | 16 | < 0.03 | 2 | 1 | < 0.03 | < 0.03 | 0.06 | 0.5 | < 0.03 | < 0.03 | 4 | 2 | 2 | – |
